Data from ChEMBL document CHEMBL5303766, “Data for DCP probe FHT-2344” (2022).

Tests used:
[1] = target: Casein kinase I isoform delta (Homo sapiens) (UniProt P48730); assay: CSNK1D SGC Tm panel (DSF); conditions: for ΔTm: Compound concentration 10.0 uM
[2] = target: T1, Dual specificity tyrosine-phosphorylation-regulated kinase 2 (Homo sapiens) (UniProt Q92630); assay: DYRK2 SGC Tm panel (DSF); conditions: for ΔTm: Compound concentration 10.0 uM
T1 sequence (whole entry): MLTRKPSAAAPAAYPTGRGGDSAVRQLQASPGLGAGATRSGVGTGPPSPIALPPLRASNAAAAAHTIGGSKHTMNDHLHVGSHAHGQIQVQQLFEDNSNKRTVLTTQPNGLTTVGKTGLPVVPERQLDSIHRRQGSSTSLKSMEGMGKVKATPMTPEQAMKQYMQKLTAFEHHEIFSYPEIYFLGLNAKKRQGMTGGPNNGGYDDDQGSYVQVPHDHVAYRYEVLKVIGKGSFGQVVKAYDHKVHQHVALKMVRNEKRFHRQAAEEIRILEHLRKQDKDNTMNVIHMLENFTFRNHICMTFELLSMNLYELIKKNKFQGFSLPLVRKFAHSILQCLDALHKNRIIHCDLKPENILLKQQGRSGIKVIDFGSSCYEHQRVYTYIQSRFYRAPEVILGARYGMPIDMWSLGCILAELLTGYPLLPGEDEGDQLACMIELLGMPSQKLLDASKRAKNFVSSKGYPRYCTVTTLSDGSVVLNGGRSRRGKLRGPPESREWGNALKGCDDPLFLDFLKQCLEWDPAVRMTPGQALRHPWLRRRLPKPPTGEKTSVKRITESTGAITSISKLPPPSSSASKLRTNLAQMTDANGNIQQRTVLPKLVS

[3] = target: T2, Serine/threonine-protein kinase DCLK1 (Homo sapiens) (UniProt O15075); assay: DCAMKL1 SGC Tm panel (DSF); conditions: for ΔTm: Compound concentration 10.0 uM
T2 sequence (whole entry): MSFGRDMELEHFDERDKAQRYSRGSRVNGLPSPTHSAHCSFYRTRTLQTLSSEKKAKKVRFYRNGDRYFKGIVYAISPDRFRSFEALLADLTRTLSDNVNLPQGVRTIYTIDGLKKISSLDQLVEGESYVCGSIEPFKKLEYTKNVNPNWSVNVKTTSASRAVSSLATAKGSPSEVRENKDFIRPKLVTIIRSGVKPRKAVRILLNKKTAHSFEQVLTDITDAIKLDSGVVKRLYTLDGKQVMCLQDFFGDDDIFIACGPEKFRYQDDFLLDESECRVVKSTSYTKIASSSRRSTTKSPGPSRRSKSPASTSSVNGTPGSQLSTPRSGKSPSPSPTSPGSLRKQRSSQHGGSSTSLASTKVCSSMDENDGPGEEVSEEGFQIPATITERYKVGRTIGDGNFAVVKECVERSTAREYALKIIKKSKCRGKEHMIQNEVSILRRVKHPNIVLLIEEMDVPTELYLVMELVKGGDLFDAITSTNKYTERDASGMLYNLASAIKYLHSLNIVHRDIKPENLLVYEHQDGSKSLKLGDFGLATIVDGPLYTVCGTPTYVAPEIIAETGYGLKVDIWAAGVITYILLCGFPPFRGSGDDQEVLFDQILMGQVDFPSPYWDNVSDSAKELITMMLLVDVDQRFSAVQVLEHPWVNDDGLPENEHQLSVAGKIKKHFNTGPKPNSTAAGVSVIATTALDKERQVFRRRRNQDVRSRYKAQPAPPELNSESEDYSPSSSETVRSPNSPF

[4] = target: Fibroblast growth factor receptor 3 (Homo sapiens) (UniProt P22607); assay: FGFR3 SGC Tm panel (DSF); conditions: for ΔTm: Compound concentration 10.0 uM
Sequence of Fibroblast growth factor receptor 3 (Homo sapiens) (P22607 23-806 limits assumed): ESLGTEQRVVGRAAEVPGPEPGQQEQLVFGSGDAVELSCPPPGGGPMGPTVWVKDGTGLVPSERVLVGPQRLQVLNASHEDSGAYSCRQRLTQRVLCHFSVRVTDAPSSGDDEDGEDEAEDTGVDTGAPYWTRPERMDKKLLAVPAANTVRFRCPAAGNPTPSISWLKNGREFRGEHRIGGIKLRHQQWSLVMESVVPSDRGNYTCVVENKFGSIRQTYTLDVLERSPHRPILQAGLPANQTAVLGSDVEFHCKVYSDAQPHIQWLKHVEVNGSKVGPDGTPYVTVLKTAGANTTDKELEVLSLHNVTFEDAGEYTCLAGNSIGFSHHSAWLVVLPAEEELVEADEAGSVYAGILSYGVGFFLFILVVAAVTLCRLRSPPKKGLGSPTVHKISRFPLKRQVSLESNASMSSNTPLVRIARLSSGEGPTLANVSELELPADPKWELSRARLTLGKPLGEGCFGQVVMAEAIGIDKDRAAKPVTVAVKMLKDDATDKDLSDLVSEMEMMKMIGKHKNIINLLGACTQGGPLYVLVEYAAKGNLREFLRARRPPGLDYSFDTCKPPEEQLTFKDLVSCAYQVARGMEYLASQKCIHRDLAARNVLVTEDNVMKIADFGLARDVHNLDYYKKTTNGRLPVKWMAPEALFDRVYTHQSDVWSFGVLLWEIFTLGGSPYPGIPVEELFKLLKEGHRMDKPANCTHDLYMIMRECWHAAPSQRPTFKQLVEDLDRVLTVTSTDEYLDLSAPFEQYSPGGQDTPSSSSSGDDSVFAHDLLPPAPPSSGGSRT

[5] = target: Maternal embryonic leucine zipper kinase (Homo sapiens) (UniProt Q14680); assay: MELK SGC Tm panel (DSF); conditions: for ΔTm: Compound concentration 10.0 uM
Sequence of Maternal embryonic leucine zipper kinase (Homo sapiens) (Q14680 whole entry, looked up): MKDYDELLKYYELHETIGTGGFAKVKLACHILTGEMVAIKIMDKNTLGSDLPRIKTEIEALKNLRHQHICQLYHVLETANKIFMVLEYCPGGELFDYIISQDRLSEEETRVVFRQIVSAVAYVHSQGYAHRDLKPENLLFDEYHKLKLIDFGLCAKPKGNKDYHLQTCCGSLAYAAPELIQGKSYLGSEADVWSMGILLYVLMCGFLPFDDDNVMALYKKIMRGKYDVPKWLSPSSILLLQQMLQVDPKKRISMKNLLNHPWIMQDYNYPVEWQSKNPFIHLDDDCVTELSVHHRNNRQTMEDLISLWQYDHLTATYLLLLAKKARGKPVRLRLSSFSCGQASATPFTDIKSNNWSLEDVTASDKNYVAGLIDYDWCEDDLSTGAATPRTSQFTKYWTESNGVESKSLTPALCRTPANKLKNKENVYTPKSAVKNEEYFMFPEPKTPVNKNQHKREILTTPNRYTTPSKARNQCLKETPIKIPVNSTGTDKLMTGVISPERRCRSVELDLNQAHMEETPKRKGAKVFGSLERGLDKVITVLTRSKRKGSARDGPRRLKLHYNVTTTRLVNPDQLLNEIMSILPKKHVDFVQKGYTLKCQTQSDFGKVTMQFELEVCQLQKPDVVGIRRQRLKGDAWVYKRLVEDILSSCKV

[6] = target: Serine/threonine-protein kinase Nek7 (Homo sapiens) (UniProt Q8TDX7); assay: NEK7 SGC Tm panel (DSF); conditions: for ΔTm: Compound concentration 10.0 uM
Sequence of Serine/threonine-protein kinase Nek7 (Homo sapiens) (Q8TDX7 whole entry, looked up): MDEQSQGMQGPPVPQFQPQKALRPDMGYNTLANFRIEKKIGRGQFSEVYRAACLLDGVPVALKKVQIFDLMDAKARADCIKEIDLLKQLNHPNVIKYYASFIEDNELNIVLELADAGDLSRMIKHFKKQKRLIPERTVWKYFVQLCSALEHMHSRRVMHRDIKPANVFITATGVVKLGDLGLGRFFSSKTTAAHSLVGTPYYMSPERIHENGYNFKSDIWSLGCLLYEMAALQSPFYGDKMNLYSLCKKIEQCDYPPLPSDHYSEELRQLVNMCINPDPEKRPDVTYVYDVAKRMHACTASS

[7] = target: Beta-1 adrenergic receptor (Homo sapiens) (UniProt P08588); conditions: Compound concentration 10.0 uM
Sequence of Beta-1 adrenergic receptor (Homo sapiens) (P08588 whole entry, looked up): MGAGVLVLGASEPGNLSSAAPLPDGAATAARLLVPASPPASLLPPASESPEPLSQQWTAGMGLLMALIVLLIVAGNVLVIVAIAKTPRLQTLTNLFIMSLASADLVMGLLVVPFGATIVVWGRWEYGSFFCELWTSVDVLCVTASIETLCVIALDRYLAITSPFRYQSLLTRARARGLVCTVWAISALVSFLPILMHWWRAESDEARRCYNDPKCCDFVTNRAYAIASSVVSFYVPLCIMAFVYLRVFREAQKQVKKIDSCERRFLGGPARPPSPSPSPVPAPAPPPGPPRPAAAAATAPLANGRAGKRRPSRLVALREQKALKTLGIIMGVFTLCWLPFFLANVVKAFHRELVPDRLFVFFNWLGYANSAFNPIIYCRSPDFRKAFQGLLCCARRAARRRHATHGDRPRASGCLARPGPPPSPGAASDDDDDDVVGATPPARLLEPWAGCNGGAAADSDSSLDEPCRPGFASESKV

[8] = target: Muscarinic acetylcholine receptor M5 (Homo sapiens) (UniProt P08912); conditions: Compound concentration 10.0 uM
Sequence of Muscarinic acetylcholine receptor M5 (Homo sapiens) (P08912 whole entry): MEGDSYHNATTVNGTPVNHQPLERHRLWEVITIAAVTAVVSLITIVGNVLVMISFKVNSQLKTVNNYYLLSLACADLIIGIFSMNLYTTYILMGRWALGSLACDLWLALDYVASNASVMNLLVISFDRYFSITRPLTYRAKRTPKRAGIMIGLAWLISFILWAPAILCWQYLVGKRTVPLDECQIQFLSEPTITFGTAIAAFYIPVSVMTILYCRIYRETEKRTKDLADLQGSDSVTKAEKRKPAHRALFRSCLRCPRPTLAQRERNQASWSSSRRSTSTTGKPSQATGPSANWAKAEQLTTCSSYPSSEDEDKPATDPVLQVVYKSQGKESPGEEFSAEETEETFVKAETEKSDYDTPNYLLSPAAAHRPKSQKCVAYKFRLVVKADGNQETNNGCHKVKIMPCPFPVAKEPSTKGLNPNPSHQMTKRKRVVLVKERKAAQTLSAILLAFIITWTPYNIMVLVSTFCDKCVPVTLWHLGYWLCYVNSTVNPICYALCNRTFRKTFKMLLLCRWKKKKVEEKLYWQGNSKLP

[9] = target: Alpha-1D adrenergic receptor (Homo sapiens) (UniProt P25100); conditions: Compound concentration 10.0 uM
Sequence of Alpha-1D adrenergic receptor (Homo sapiens) (P25100 whole entry): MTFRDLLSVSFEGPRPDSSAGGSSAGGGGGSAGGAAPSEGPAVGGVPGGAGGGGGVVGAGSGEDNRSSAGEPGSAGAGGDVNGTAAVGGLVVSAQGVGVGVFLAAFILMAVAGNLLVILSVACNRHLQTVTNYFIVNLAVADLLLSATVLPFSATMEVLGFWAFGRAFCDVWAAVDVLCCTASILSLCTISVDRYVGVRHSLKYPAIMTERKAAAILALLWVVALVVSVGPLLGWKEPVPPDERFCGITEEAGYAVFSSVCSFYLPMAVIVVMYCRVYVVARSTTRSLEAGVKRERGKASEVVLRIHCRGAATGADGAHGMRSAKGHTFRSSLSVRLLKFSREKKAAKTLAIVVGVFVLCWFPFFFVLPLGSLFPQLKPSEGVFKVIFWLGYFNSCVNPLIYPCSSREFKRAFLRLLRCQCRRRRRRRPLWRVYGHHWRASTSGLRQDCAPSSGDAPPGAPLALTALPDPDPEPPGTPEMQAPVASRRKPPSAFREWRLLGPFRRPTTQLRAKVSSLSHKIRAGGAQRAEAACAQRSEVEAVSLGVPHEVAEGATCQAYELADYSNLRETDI

Sequence of Casein kinase I isoform delta (Homo sapiens) (P48730 whole entry, looked up, canonical isoform): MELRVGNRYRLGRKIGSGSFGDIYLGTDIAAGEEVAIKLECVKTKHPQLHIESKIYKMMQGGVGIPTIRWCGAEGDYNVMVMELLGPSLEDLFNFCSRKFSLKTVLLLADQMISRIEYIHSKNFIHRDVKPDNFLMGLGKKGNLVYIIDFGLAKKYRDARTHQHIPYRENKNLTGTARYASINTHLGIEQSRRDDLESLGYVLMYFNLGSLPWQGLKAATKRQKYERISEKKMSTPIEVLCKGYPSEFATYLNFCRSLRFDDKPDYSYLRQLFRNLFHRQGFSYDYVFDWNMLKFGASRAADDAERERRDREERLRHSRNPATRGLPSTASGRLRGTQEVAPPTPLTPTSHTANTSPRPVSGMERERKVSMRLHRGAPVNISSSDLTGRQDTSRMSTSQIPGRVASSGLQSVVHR

Row | delta Tm Staurosporine positive control [1] | ΔTm [1] | delta Tm Staurosporine positive control [2] | ΔTm [2] | delta Tm Staurosporine positive control [3] | ΔTm [3] | delta Tm Staurosporine positive control [4] | ΔTm [4] | delta Tm Staurosporine positive control [5] | ΔTm [5] | delta Tm Staurosporine positive control [6] | ΔTm [6] | inhibition [7] [%] | inhibition [8] [%] | inhibition [9] [%] | SMILES
1 | 1.43 | 0.845 | 6.46 | 1.82 | 14 | -0.00623 | 11.8 | 1.77 | 14 | 0.116 | 1.29 | 0.0219 | 3.85 | 4.67 | 42 | C[C@H](NC(=O)c1cn(C2(C#N)CC2)cn1)C(=O)Nc1nc(-c2cccc(-c3ccn(C)n3)c2)cs1
2 | 1.43 | 0.637 | 6.46 | 1.45 | 14 | 0.237 | 11.8 | 0.361 | 14 | -0.053 | 1.29 | 0.0604 | 1.4 | 0.52 | 30.4 | COC[C@H](NC(=O)c1ccn(S(C)(=O)=O)c1)C(=O)Nc1nc(-c2cccc(-c3ccn(C)n3)c2)cs1
